Measured values taken from US20230123334A1, “AMINO LIPID COMPOUND, PREPARATION METHOD THEREFOR, AND APPLICATION THEREOF” (SHENZHEN SHENXIN BIOTECHNOLOGY CO., LTD., priority 2020, published 2023).

Test system: HEK293 cells
Assay: Preliminary screening as mRNA vectors, EGFP mRNA transfection of HEK293 cells
Assay type: cell-based
Conditions: HEK293 cells, 96-well plates, EGFP mRNA 50 ng per well; percentage of GFP fluorescent cells relative to total number of cells (Hoechst)
How it was run: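 Each well of HEK293 cells received 50 ng of EGFP mRNA. Efficiency was expressed as percent GFP-expressing cells over Hoechst-defined total cell number.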

Compound | Absolute mRNA transfection efficiency in HEK293 cells [%]
CCCCCCCCCCCCCCCCCCNc1nc(NCCCCCCCCCCCCC)nc(NCCCN(C)C)n1 [Compound N13N18D6] | 14.7
CCCCCCCCCCCCCCCCCCNc1nc(NCCCCCCCCCCCCC)nc(NCCN(CC)CC)n1 [Compound N13N18D7] | 1.3
CCCCCCCCCCCCCCCCCCNc1nc(NCCCCCCCCCCCCC)nc(NCCCN2CCOCC2)n1 [Compound N13N18D8] | 0.0
CCCCCCCCCCCCCCCCCCNc1nc(NCCCCCCCCCCCCC)nc(NCCCN2CCN(C)CC2)n1 [Compound N13N18D9] | 0.8
CCCCCCCCCCCCCCCCCCNc1nc(NCCCCCCCCCCCCC)nc(NCC2CCN(C)CC2)n1 [Compound N13N18D10] | 6.1
CCCCCCCCCCCCCCCNc1nc(NCCCCCCCCCCCCCCC)nc(NCCN(C)C)n1 [Compound N15N15D1] | 0.0
CCCCCCCCCCCCCCCNc1nc(NCCCCCCCCCCCCCCC)nc(NCCN2CCOCC2)n1 [Compound N15N15D2] | 0.0
CCCCCCCCCCCCCCCNc1nc(NCCCCCCCCCCCCCCC)nc(NCCN2CCCC2)n1 [Compound N15N15D3] | 3.8
CCCCCCCCCCCCCCCNc1nc(NCCCCCCCCCCCCCCC)nc(NCCN2CCCCC2)n1 [Compound N15N15D4] | 0.8
CCCCCCCCCCCCCCCNc1nc(NCCCCCCCCCCCCCCC)nc(NCCN2CCN(C)CC2)n1 [Compound N15N15D5] | 0.0
CCCCCCCCCCCCCCCNc1nc(NCCCCCCCCCCCCCCC)nc(NCCCN(C)C)n1 [Compound N15N15D6] | 0.0
CCCCCCCCCCCCCCCNc1nc(NCCCCCCCCCCCCCCC)nc(NCCN(CC)CC)n1 [Compound N15N15D7] | 0.0
CCCCCCCCCCCCCCCNc1nc(NCCCCCCCCCCCCCCC)nc(NCCCN2CCOCC2)n1 [Compound N15N15D8] | 0.0
CCCCCCCCCCCCCCCNc1nc(NCCCCCCCCCCCCCCC)nc(NCCCN2CCN(C)CC2)n1 [Compound N15N15D9] | 0.0
CCCCCCCCCCCCCCCNc1nc(NCCCCCCCCCCCCCCC)nc(NCC2CCN(C)CC2)n1 [Compound N15N15D10] | 4.2
CCCCCCCCCCCCCCCCNc1nc(NCCCCCCCCCCCCCCC)nc(NCCN(C)C)n1 [Compound N15N16D1] | 3.6
CCCCCCCCCCCCCCCCNc1nc(NCCCCCCCCCCCCCCC)nc(NCCN2CCOCC2)n1 [Compound N15N16D2] | 0.0
CCCCCCCCCCCCCCCCNc1nc(NCCCCCCCCCCCCCCC)nc(NCCN2CCCC2)n1 [Compound N15N16D3] | 6.1
CCCCCCCCCCCCCCCCNc1nc(NCCCCCCCCCCCCCCC)nc(NCCN2CCCCC2)n1 [Compound N15N16D4] | 1.6
CCCCCCCCCCCCCCCCNc1nc(NCCCCCCCCCCCCCCC)nc(NCCN2CCN(C)CC2)n1 [Compound N15N16D5] | 0.0

Test system: HEK293 cells
Assay: Preliminary screening as DNA vectors, GFP transfection of HEK293 cells
Assay type: cell-based
Conditions: HEK293 cells; lipid/DOPE liposome with 75 ng plasmid DNA (psin-EGFP-IRES-Puro); number of cells expressing GFP divided by total number of nuclei (Hoechst)
How it was run: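 Lipid + DOPE liposomes (NaOAc, pH 5.6) complexed w/ 75 ng psin-EGFP-IRES-Puro, 30 min RT; added to 3-5×10^4 HEK293/well, 37° C. Hoechst 0.2 μg/mL at 20-24 h, imaged after further 20-24 h. Efficiency = GFP+ cells / total nuclei.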

Compound | Absolute DNA transfection efficiency in HEK293 cells [%]
CCCCCCCCCCCCCCCCCCNc1nc(NCCCCCCCCCCCCC)nc(NCCCN(C)C)n1 [Compound N13N18D6] | 3.0
CCCCCCCCCCCCCCCCCCNc1nc(NCCCCCCCCCCCCC)nc(NCCN(CC)CC)n1 [Compound N13N18D7] | 3.7
CCCCCCCCCCCCCCCCCCNc1nc(NCCCCCCCCCCCCC)nc(NCCCN2CCOCC2)n1 [Compound N13N18D8] | 0.0
CCCCCCCCCCCCCCCCCCNc1nc(NCCCCCCCCCCCCC)nc(NCCCN2CCN(C)CC2)n1 [Compound N13N18D9] | 1.1
CCCCCCCCCCCCCCCCCCNc1nc(NCCCCCCCCCCCCC)nc(NCC2CCN(C)CC2)n1 [Compound N13N18D10] | 0.5
CCCCCCCCCCCCCCCNc1nc(NCCCCCCCCCCCCCCC)nc(NCCN(C)C)n1 [Compound N15N15D1] | 2.3
CCCCCCCCCCCCCCCNc1nc(NCCCCCCCCCCCCCCC)nc(NCCN2CCOCC2)n1 [Compound N15N15D2] | 0.0
CCCCCCCCCCCCCCCNc1nc(NCCCCCCCCCCCCCCC)nc(NCCN2CCCC2)n1 [Compound N15N15D3] | 1.8
CCCCCCCCCCCCCCCNc1nc(NCCCCCCCCCCCCCCC)nc(NCCN2CCCCC2)n1 [Compound N15N15D4] | 1.3
CCCCCCCCCCCCCCCNc1nc(NCCCCCCCCCCCCCCC)nc(NCCN2CCN(C)CC2)n1 [Compound N15N15D5] | 0.9
CCCCCCCCCCCCCCCNc1nc(NCCCCCCCCCCCCCCC)nc(NCCCN(C)C)n1 [Compound N15N15D6] | 1.5
CCCCCCCCCCCCCCCNc1nc(NCCCCCCCCCCCCCCC)nc(NCCN(CC)CC)n1 [Compound N15N15D7] | 0.5
CCCCCCCCCCCCCCCNc1nc(NCCCCCCCCCCCCCCC)nc(NCCCN2CCOCC2)n1 [Compound N15N15D8] | 0.0
CCCCCCCCCCCCCCCNc1nc(NCCCCCCCCCCCCCCC)nc(NCCCN2CCN(C)CC2)n1 [Compound N15N15D9] | 0.4
CCCCCCCCCCCCCCCNc1nc(NCCCCCCCCCCCCCCC)nc(NCC2CCN(C)CC2)n1 [Compound N15N15D10] | 1.1
CCCCCCCCCCCCCCCCNc1nc(NCCCCCCCCCCCCCCC)nc(NCCN(C)C)n1 [Compound N15N16D1] | 1.8
CCCCCCCCCCCCCCCCNc1nc(NCCCCCCCCCCCCCCC)nc(NCCN2CCOCC2)n1 [Compound N15N16D2] | 0.0
CCCCCCCCCCCCCCCCNc1nc(NCCCCCCCCCCCCCCC)nc(NCCN2CCCC2)n1 [Compound N15N16D3] | 2.5
CCCCCCCCCCCCCCCCNc1nc(NCCCCCCCCCCCCCCC)nc(NCCN2CCCCC2)n1 [Compound N15N16D4] | 1.9
CCCCCCCCCCCCCCCCNc1nc(NCCCCCCCCCCCCCCC)nc(NCCN2CCN(C)CC2)n1 [Compound N15N16D5] | 0.7
